Data as given in patent publication US20230270781A1, “TREATMENT OR PREVENTION OF PRO-INFLAMMATORY DISEASES OR CONDITIONS USING INDUCED REGULATORY T (ITREG) CELLS” (RAPA THERAPEUTICS, LLC, priority 2020, published 2023).

How the values were obtained:
[1] = test system: human CD4+ and CD8+ T cells; assay: Luminex cytokine secretion in extended hybrid Th2/TREG culture (days 12, 20, 32); type: cell-based; settings: for ability of T cells to secrete IL-5 / ability of T cells to secrete IL-13: inhibitor in TREG-Th2 re-differentiation culture: temsirolimus 1.0 µM or pemetrexed 10 nM
Text: (§1) FIGS. 21A-21D illustrates that extended culture of de-differentiated T cells in the hybrid Th2/TREG polarization condition results in the generation of T cells expressing with a predominant Th2 cytokine phenotype: IL-4, IL-5, and IL-13 secretion. […] At days 12, 20, and 32 of culture, the T cells were harvested, washed, and restimulated with 3/28 beads (3:1 ratio) for 24 hr; the resultant supernatant was harvested and tested for cytokine content by Luminex multi-analyte method. All results shown are expressed as cytokine level in pg per ml per 1 × 10^6 cells/ml/24 hr. The Th2 cytokine IL-10 was also evaluated: all values were less than 20 pg/ml per 1 × 10^6 cells/ml/24 hr.
as §1, with “22A-22D illustrate” for “21A-21D illustrates”, “IL-2, IFN-γ,” for “IL-4, IL-5,”, “GM-CSF” for “IL-13”, “inflammatory cytokines IL-17 and TNF-α were” for “Th2 cytokine IL-10 was”

[2] = test system: human CD4+ and CD8+ T cells; assay: Expansion of de-differentiated T cells in Th1, TREG or hybrid Th2/TREG polarization with or without pemetrexed; type: cell-based
Procedure: Human CD4^+ and CD8^+ T cells were subjected to a 3-day de-differentiation procedure (“STEP 1”). […] In addition, the T cell culture in the presence of the variable polarization conditions was performed without the novel inhibitory molecule, pemetrexed (“0”) or in the presence of variable concentrations of pemetrexed, as indicated (10 nM [“10”]; 33 nM [“33”]; or 100 nM [“100”]. After a total of 10 days of culture, the n=24 cultures were harvested and live cells were enumerated and graphed above (y-axis indicated number of cells × 10^6; input cell number was 1.5 × 10^6 cells).

[3] = test system: human CD4+ and CD8+ T cells; assay: Flow cytometry of FOXP3, Tbet, GATA3 in extended hybrid Th2/TREG culture (days 12, 20, 32); type: cell-based
Text: To evaluate these transcription factors in our manufacturing method, T cells were first subjected to the step 1 de-differentiation procedure and then re-differentiated in the hybrid TREG-Th2 culture condition (IL-2, TGF-β, and IL-4). In addition, we compared the effects of pemetrexed with a classical mTOR inhibitor.
The iTREG phenotype is considered to be unstable; as such, we evaluated the stability of T cells re-differentiated using the hybrid TREG-Th2 culture condition at delayed time points, including days 20 and 32 of culture. In addition, to test phenotype stability in a rigorous manner, between day 24 and day 32 of culture, T cells received a high level of co-stimulation (3:1 bead-to-T cell ratio) and were propagated in media without cytokines or pharmacologic agents.
FIGS. 19A-19D illustrate that extended culture of de-differentiated T cells in the hybrid Th2/TREG polarization condition containing pemetrexed results in the generation of CD4^+ T cells expressing FOXP3 and GATA3 transcription factors. […] At days 12, 20, and 32 of culture, T cells were harvested and subjected to surface flow cytometry (CD4 marker) and intra-cellular staining for the following transcription factors, FOXP3, Tbet, and GATA3. The data above show the percent CD4 cells out of the total cultured population (FIG. 19A); the percent of CD4 cells that expressed the TREG transcription factor FOXP3 (FIG. 19B); the percent of CD4 cells that expressed the Th1 transcription factor Tbet (FIG. 19C); and the percent of CD4 cells that expressed the Th2 transcription factor GATA3 (FIG. 19D).
FIGS. 20A-20D illustrate that extended culture of de-differentiated T cells in the hybrid Th2/TREG polarization condition containing pemetrexed results in the generation of CD8^+ T cells expressing FOXP3 and GATA3 transcription factors. […] At days 12, 20, and 32 of culture, T cells were harvested and subjected to surface flow cytometry (CD8 marker) and intra-cellular staining for the following transcription factors, FOXP3, Tbet, and GATA3. […]

[4] = test system: human CD4+ and CD8+ T cells; assay: T cell yield at day 13 after de-differentiation interval and re-stimulation without inhibitors; type: cell-based; settings: column #7; temsirolimus reduced to 0.1 µM
Procedure: After 10 days (13 days of total culture), the T cells were harvested, enumerated, and evaluated by flow cytometry. FIG. 8 illustrates the effect of culture components during the de-differentiation interval on subsequent T cell yield (at day 13 of culture). […] After the 3-day interval, media was exchanged to fresh X-Vivo 20 without inhibitors, high-level co-stimulation was provided (3:1 bead-to-T cell ratio), and the T cell growth cytokines IL-2 (100 IU/ml) and IL-7 (10 ng/ml) were added. At day 13 of culture, viable T cells were enumerated and the overall yield is shown relative to day 0 input number.

[5] = test system: human CD4+ and CD8+ T cells; assay: Western blot for mTORC1 complex protein Raptor after 3-day de-differentiation culture; type: cell-based
Text: After the 3-day culture interval, the T cells were harvested, and protein was isolated and subjected to western blot analysis for the mTORC1 complex protein, Raptor, and the housekeeping gene, Actin.

[6] = test system: human CD4+ and CD8+ T cells; assay: Western blot for Raptor, Rictor, p70S6K, SGK1 after 3-day de-differentiation culture; type: cell-based; settings: relative to control culture without the three inhibitors; temsirolimus 1 µM, Vitamin D 0.03-1.0 nM, Daclizumab 50 µg/ml
Text: After the 3-day culture interval, the T cells were harvested, and protein was isolated and subjected to western blot analysis for the mTORC1 complex protein, Raptor; the mTORC2 complex protein, Rictor; the post-mTORC1 protein p70S6K; the post-mTORC2 protein, SGK1; and the housekeeping gene, GAPDH.

[7] = test system: human CD4+ and CD8+ T cells; assay: RNA expression analysis (Luminex Quantigene) after 3-day de-differentiation culture; type: cell-based; settings: relative to control Th1/Tc1 culture, temsirolimus 1 µM
Procedure: At the end of the de-differentiation interval, cells were harvested, RNA was isolated, and RNA expression analysis was performed by Luminex Quantigene method. All results shown represent relative RNA expression, with results normalized to a value of 1.0 for the Th1/Tc1 control culture.

[8] = test system: T cell TCR specificities of peripheral blood mononuclear cells; assay: RNA-based T cell receptor repertoire profiling pre- and post-etanercept therapy; type: in vivo, human
Text: (§2) FIGS. 23A & 23B depict the use of RNA-based T cell receptor sequencing to detect a widespread up- and down-regulation of T cell TCR specificities after therapy with the TNF-α inhibitor, etanercept. In FIG. 23, RNA was isolated from peripheral blood mononuclear cells from an patient pre- and post-therapy with etanercept therapy. The RNA was subjected to TCR repertoire profiling, as previously described by Rosati E, Dowds CM, Liaskou E, Henriksen EKK, Karlsen TH, Franke A. Overview of methodologies for T-cell receptor repertoire analysis. BMC Biotechnol. 2017;17(1):61.
as §2, with “FIGS. 36A-36B” for “FIGS. 23A & 23B”, “depict” for “depict the”, “In FIGS. 36A-36B,” for “In FIG. 23,”, “from a” for “from an”

[9] = test system: human CD4+ and CD8+ T cells; assay: Western blot for pro-apoptosis molecule BIM after 3-day de-differentiation culture; type: cell-based; settings: 1:3 bead-to-T cell ratio; temsirolimus, Vitamin D 0.1 nM, Daclizumab 50 µg/ml
Text: After the 3-day culture interval, the T cells were harvested, and protein was isolated and subjected to western blot analysis for the pro-apoptosis-related gene, BIM, and the housekeeping gene, Actin.

[10] = 3-day culture, bead-to-T cell ratio 1:3, Vitamin D 0.1 or 1.0 nM
[11] = patient PBMC, post- versus pre-etanercept

Molecule: Nc1nc2[nH]cc(CCc3ccc(C(=O)N[C@@H](CCC(=O)O)C(=O)O)cc3)c2c(=O)[nH]1 [pemetrexed]
- GM-CSF secretion ([1]; TREG-Th2 hybrid culture supplemented with pemetrexed 10 nM): higher degree
- ability of T cells to secrete IL-5 [1]: fully preserved
- ability of T cells to secrete IL-13 [1]: fully preserved
- T cell number after re-differentiation in pure TREG polarization (IL-2 plus TGF-β without IL-4) ([2]; most stringent step 1, cultures #20 and #21, in the presence of pemetrexed): unsuccessful
- T cell number after re-differentiation in TREG-Th2 polarization ([2]; step 1 temsirolimus, vitamin D, anti-IL-2 receptor antibody, pemetrexed 10 nM in step 2, 10 days): sufficient T cells
- CD4 cells expressing GATA3 ([3]; end of culture, hybrid condition with pemetrexed 10 nM versus no inhibitor or temsirolimus): highest end-of-culture Th2-associated GATA3 expression
- CD8+ T cells expressing TBET ([3]; hybrid condition in the presence of pemetrexed 10 nM): lowest levels
- CD4 cells expressing TBET ([3]; hybrid polarization condition with pemetrexed 10 nM versus no inhibitor or temsirolimus): most consistently reduced TBET values

Molecule: CO[C@H]1C[C@@H]2CC[C@@H](C)[C@@](O)(O2)C(=O)C(=O)N2CCCC[C@H]2C(=O)O[C@H]([C@H](C)C[C@@H]2CC[C@@H](OC(=O)C(C)(CO)CO)[C@H](OC)C2)CC(=O)[C@H](C)/C=C(\C)[C@@H](O)[C@@H](OC)C(=O)[C@H](C)C[C@H](C)/C=C/C=C/C=C/1C [temsirolimus]
- ability of T cells to secrete IL-5 [1]: blunted
- ability of T cells to secrete IL-13 [1]: blunted
- T cell yield at day 13 with temsirolimus 0.1 µM [4]: reduced the resultant T cell yield
- Raptor expression at temsirolimus 0.3 µM ([5]; culture 9, temsirolimus 0.3 µM, versus 1.0 µM): higher levels of Raptor expression
- temsirolimus dose for optimal down-regulation of Raptor ([5]; in combination with Vitamin D): 1.0 µM
- Rictor expression (western blot) [6]: effective
- Granzyme B RNA expression [7, 10]: reduction
- IFN-gamma RNA expression [7, 10]: reduction
- IL-10 RNA expression [7, 10]: reduction
- IL-7 receptor alpha RNA expression ([7]; Vitamin D 1.0 nM): capable of up-regulating
- KLF4 RNA expression ([7]; Vitamin D 1.0 nM): neither temsirolimus nor Vitamin D alone increased
- KLF10 RNA expression ([7]; Vitamin D 1.0 nM): acts alone to beneficially up-regulate
- HIF-1-α RNA expression ([7]; Vitamin D 0.1 to 1.0 nM): did not down-regulate
- Nanog transcription factor RNA expression ([7]; Vitamin D 0.1 to 1.0 nM): up-regulation
- STAT1 RNA expression ([7]; Vitamin D 0.1 to 1.0 nM): acts alone to beneficially down-regulate
- T-BET RNA expression ([7]; Vitamin D 0.1 to 1.0 nM): acts alone to beneficially down-regulate

Molecule: etanercept
- post-treatment frequencies of contracted T cell clones (SEQ ID NOs: 1-3 and 5) ([8]; decreased from frequencies of 259 to 598 pre-etanercept): 0.01
- TCR specificities down-regulated in the post-therapy sample [8, 11]: approximately 25%
- TCR specificities up-regulated in the post-therapy sample [8, 11]: approximately 25%
- T cell clonal contraction ([8]; post- versus pre-etanercept): more than 4 log
- T cell clonal expansion ([8]; post- versus pre-etanercept): more than 4 log

B1: Daclizumab: anti-IL-2 receptor monoclonal antibody (antibody, chains of the INN, looked up, V domains shown)
VH: QVQLVQSGAEVKKPGSSVKVSCKASGYTFTSYRMHWVRQAPGQGLEWIGYINPSTGYTEYNQKFKDKATITADESTNTAYMELSSLRSEDTAVYYCARGGGVFDYWGQGTLVTVSS
VL: DIQMTQSPSTLSASVGDRVTITCSASSSISYMHWYQQKPGKAPKLLIYTTSNLASGVPARFSGSGSGTEFTLTISSLQPDDFATYYCHQRSTYPLTFGQGTKVEVK
- BIM expression (western blot, normalized by actin) [9]: beneficial role in suppressing
- Raptor expression (western blot, normalized by actin) ([5]; 1:3 bead-to-T cell ratio, temsirolimus 1.0 µM, Vitamin D 0.1 nM, daclizumab 50 µg/ml): beneficial role in suppressing
- Rictor expression (western blot) [6]: did not abrogate
